ChEMBL document CHEMBL4330132, “5-Keto-3-cyano-2,4-diaminothiophenes as selective maternal embryonic leucine zipper kinase inhibitors” (Bioorg Med Chem Lett, 2019)

What was measured:
[1] = biological target: Calcium/calmodulin-dependent protein kinase type 1G (Homo sapiens) (UniProt Q96NX5); assay: Binding affinity to wild-type human partial length CAMK1G (M1 to A342 residues) expressed in bacterial expression system assessed as residual binding level at 1 uM by Kinomescan method relative to control
[2] = biological target: Homeodomain-interacting protein kinase 3 (Homo sapiens) (UniProt Q9H422); assay: Binding affinity to wild-type human partial length HIPK3 (M153 to N562 residues) expressed in mammalian expression system assessed as residual binding level at 1 uM by Kinomescan method relative to control
[3] = biological target: Receptor-type tyrosine-protein kinase FLT3 (Homo sapiens) (UniProt P36888); assay: Binding affinity to wild-type human partial length FLT3 (V592 to Y969 residues) expressed in bacterial expression system assessed as residual binding level at 1 uM by Kinomescan method relative to control
[4] = biological target: Activated CDC42 kinase 1 (Homo sapiens) (UniProt Q07912); assay: Binding affinity to wild-type human partial length TNK2 (S159 to D474 residues) expressed in bacterial expression system assessed as residual binding level at 1 uM by Kinomescan method relative to control
[5] = system: Phosphatidylinositol 4,5-bisphosphate 3-kinase catalytic subunit alpha isoform (Homo sapiens), P42336 [H1047L]; assay: Binding affinity to human partial length PIK3CA H1047L mutant (R108 to N1068 residues) expressed in mammalian expression system assessed as residual binding level at 1 uM by Kinomescan method relative to control
[6] = system: Receptor-type tyrosine-protein kinase FLT3 (Homo sapiens), P36888 [R834Q]; assay: Binding affinity to human partial length FLT3 R834Q mutant (V592 to Y969 residues) expressed in mammalian expression system assessed as residual binding level at 1 uM by Kinomescan method relative to control
[7] = system: Receptor-type tyrosine-protein kinase FLT3 (Homo sapiens), P36888 [N841I]; assay: Binding affinity to human partial length FLT3 N841I mutant (V592 to Y969 residues) expressed in bacterial expression system assessed as residual binding level at 1 uM by Kinomescan method relative to control
[8] = biological target: Casein kinase I isoform delta (Homo sapiens) (UniProt P48730); assay: Binding affinity to wild-type human full length CSNK1D (M1 to K409 residues) expressed in bacterial expression system assessed as residual binding level at 1 uM by Kinomescan method relative to control
[9] = biological target: AP2-associated protein kinase 1 (Homo sapiens) (UniProt Q2M2I8); assay: Binding affinity to human wild-type AAK1 (G25 to L333 residues) expressed in bacterial expression system assessed as residual binding level at 1 uM by Kinomescan method relative to control
[10] = biological target: Serine/threonine-protein kinase Sgk3 (Homo sapiens) (UniProt Q96BR1); assay: Binding affinity to wild-type human partial length SGK3 (M119 to L496 residues) expressed in mammalian expression system assessed as residual binding level at 1 uM by Kinomescan method relative to control
[11] = system: Tyrosine-protein kinase ABL1 (Homo sapiens), P00519 [Q252H]; assay: Binding affinity to human non-phosphorylated ABL1 Q252H mutant (S229 to K512 residues) expressed in mammalian expression system assessed as residual binding level at 1 uM by Kinomescan method relative to control
[12] = biological target: Calcium/calmodulin-dependent protein kinase type II subunit alpha (Homo sapiens) (UniProt Q9UQM7); assay: Binding affinity to wild-type human partial length CAMK2A (M1 to K328 residues) expressed in bacterial expression system assessed as residual binding level at 1 uM by Kinomescan method relative to control
[13] = biological target: Phosphatidylinositol 5-phosphate 4-kinase type-2 gamma (Homo sapiens) (UniProt Q8TBX8); assay: Binding affinity to wild-type human partial length PIP5K2C (M1 to A421 residues) expressed in mammalian expression system assessed as residual binding level at 1 uM by Kinomescan method relative to control
[14] = biological target: Serine/threonine-protein kinase Chk1 (Homo sapiens) (UniProt O14757); assay: Binding affinity to wild-type human partial length CHEK1 (M1 to G289 residues) expressed in bacterial expression system assessed as residual binding level at 1 uM by Kinomescan method relative to control
[15] = biological target: Mitogen-activated protein kinase kinase kinase 5 (Homo sapiens) (UniProt Q99683); assay: Binding affinity to wild-type human partial length ASK1 (E648 to S964 residues) expressed in bacterial expression system assessed as residual binding level at 1 uM by Kinomescan method relative to control
[16] = biological target: Mitogen-activated protein kinase kinase kinase 13 (Homo sapiens) (UniProt O43283); assay: Binding affinity to wild-type human full length LZK (M1 to W966 residues) expressed in mammalian expression system assessed as residual binding level at 1 uM by Kinomescan method relative to control
[17] = biological target: Tyrosine-protein kinase FRK (Homo sapiens) (UniProt P42685); assay: Binding affinity to wild-type human partial length FRK (A215 to F503 residues) expressed in bacterial expression system assessed as residual binding level at 1 uM by Kinomescan method relative to control
[18] = biological target: Ribosomal protein S6 kinase alpha-4 (Homo sapiens) (UniProt O75676); assay: Binding affinity to wild-type human partial length C-terminal RPS6KA4 kinase domain 2 (M375 to T705 residues) expressed in mammalian expression system assessed as residual binding level at 1 uM by Kinomescan method relative to control
[19] = system: Epidermal growth factor receptor (Homo sapiens), P00533 [UNDEFINED MUTATION]; assay: Binding affinity to human partial length EGFR L747-T751del/Sins mutant expressed in bacterial expression system assessed as residual binding level at 1 uM by Kinomescan method relative to control
[20] = biological target: Leucine-rich repeat serine/threonine-protein kinase 2 (Homo sapiens) (UniProt Q5S007); assay: Binding affinity to wild-type human partial length LRRK2 (H970 to E2527 residues) expressed in mammalian expression system assessed as residual binding level at 1 uM by Kinomescan method relative to control
[21] = biological target: cGMP-dependent protein kinase 1 (Homo sapiens) (UniProt Q13976); assay: Binding affinity to wild-type human partial length PRKG1 (L339 to F686 residues) expressed in bacterial expression system assessed as residual binding level at 1 uM by Kinomescan method relative to control
[22] = biological target: Tyrosine-protein kinase JAK3 (Homo sapiens) (UniProt P52333); assay: Binding affinity to wild-type human partial length JAK3 JH1 catalytic domain (I781 to S1124 residues) expressed in mammalian expression system assessed as residual binding level at 1 uM by Kinomescan method relative to control
[23] = biological target: Serine/threonine-protein kinase Nek6 (Homo sapiens) (UniProt Q9HC98); assay: Binding affinity to wild-type human full length NEK6 (M8 to T313 residues) expressed in bacterial expression system assessed as residual binding level at 1 uM by Kinomescan method relative to control
[24] = biological target: Platelet-derived growth factor receptor beta (Homo sapiens) (UniProt P09619); assay: Binding affinity to wild-type human partial length PDGFRB (V582 to Y1009 residues) expressed in bacterial expression system assessed as residual binding level at 1 uM by Kinomescan method relative to control
Sequence of Platelet-derived growth factor receptor beta (Homo sapiens) (P09619 whole entry, the tested form may be a part): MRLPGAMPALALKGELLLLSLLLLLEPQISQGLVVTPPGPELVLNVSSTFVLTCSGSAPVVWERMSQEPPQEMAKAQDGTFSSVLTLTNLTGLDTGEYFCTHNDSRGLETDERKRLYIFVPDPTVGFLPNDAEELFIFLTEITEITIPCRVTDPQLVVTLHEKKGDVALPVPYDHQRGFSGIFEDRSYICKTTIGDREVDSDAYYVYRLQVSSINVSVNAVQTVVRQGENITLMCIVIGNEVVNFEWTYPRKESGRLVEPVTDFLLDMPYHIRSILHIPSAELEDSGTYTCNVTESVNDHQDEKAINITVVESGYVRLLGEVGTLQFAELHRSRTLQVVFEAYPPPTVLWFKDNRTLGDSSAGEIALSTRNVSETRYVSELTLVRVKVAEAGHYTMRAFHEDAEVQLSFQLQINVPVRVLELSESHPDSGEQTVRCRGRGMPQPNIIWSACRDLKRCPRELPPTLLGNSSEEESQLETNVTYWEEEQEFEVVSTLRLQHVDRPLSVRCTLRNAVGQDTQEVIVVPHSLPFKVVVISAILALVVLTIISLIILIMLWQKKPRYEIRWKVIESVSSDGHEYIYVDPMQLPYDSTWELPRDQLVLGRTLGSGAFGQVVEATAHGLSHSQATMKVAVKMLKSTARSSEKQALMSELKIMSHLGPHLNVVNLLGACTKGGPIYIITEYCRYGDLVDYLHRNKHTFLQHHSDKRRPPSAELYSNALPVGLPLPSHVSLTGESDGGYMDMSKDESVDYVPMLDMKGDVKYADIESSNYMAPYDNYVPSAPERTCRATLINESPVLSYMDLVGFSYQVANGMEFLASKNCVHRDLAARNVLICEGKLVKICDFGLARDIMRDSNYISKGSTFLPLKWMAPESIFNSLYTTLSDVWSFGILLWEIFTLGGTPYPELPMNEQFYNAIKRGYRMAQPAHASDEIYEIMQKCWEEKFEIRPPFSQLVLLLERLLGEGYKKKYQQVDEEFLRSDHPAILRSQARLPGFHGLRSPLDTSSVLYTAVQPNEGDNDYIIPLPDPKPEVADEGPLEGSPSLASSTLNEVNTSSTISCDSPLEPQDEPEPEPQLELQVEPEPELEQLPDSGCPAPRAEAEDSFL

Sequence of Serine/threonine-protein kinase Sgk3 (Homo sapiens) (Q96BR1 whole entry, the tested form may be a part): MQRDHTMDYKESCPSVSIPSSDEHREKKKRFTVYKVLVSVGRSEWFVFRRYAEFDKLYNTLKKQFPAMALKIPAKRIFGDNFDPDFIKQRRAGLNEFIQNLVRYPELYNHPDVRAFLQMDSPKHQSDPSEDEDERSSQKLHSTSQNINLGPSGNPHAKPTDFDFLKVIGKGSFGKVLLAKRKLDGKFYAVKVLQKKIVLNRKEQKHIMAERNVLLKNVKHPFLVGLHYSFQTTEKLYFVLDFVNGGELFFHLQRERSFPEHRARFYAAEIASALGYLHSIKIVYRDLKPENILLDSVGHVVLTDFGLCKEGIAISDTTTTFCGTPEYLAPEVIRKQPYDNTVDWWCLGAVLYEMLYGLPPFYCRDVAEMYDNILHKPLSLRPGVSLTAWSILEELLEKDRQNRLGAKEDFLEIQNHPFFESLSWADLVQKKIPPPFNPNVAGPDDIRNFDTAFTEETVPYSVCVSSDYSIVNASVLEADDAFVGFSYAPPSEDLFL
Sequence of Homeodomain-interacting protein kinase 3 (Homo sapiens) (Q9H422 whole entry, looked up, the tested form may be a part): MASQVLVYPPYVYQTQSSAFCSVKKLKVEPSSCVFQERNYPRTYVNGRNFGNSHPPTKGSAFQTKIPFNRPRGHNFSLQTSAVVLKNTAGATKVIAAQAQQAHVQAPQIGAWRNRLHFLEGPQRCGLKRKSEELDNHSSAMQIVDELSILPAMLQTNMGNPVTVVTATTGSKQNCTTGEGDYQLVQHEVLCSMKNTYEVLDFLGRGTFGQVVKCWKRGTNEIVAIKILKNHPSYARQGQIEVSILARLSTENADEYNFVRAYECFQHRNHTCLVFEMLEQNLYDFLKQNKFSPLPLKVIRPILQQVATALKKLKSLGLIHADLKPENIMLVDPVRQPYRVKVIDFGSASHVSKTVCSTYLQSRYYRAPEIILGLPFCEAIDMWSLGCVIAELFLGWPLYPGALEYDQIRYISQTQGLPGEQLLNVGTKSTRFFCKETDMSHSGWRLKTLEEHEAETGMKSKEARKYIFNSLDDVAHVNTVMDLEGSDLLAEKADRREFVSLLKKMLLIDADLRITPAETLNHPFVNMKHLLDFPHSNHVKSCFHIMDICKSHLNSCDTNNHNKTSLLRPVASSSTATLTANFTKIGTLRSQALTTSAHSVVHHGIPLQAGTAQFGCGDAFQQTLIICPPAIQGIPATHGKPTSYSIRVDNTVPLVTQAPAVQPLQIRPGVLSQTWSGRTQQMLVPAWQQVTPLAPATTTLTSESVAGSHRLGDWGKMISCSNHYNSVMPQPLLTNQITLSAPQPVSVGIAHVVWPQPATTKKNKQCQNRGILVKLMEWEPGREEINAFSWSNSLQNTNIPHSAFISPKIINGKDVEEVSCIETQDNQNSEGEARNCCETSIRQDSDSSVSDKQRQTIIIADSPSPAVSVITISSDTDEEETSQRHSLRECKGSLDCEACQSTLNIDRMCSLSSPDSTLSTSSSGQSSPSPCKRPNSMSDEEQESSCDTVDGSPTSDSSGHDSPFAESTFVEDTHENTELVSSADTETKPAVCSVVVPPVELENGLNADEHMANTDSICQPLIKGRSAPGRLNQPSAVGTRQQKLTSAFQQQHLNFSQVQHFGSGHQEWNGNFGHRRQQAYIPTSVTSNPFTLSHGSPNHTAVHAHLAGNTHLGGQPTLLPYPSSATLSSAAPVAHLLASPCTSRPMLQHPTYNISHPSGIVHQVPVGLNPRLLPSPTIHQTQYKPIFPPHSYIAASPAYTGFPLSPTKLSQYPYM
Sequence of Serine/threonine-protein kinase Chk1 (Homo sapiens) (O14757 whole entry, the tested form may be a part): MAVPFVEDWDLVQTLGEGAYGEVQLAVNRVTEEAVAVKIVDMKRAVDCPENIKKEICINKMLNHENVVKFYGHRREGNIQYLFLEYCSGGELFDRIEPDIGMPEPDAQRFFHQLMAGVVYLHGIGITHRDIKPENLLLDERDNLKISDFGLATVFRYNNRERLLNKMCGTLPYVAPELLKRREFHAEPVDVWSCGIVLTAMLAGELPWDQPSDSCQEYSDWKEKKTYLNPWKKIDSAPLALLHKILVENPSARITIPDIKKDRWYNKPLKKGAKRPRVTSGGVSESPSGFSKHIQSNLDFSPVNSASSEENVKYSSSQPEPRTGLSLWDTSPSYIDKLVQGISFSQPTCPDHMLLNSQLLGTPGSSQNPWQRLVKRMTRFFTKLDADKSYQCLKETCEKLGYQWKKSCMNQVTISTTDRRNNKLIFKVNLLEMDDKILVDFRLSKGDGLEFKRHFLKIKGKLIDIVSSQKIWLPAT
Sequence of Serine/threonine-protein kinase Nek6 (Homo sapiens) (Q9HC98 whole entry, the tested form may be a part): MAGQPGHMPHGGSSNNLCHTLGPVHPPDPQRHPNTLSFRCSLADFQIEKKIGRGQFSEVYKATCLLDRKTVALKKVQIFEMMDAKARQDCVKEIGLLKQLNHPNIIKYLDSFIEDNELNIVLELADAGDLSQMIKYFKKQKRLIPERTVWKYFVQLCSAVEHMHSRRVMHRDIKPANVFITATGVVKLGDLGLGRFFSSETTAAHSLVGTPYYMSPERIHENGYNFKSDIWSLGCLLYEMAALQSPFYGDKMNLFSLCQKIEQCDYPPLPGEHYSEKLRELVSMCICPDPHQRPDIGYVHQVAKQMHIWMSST
Sequence of AP2-associated protein kinase 1 (Homo sapiens) (Q2M2I8 whole entry, looked up, the tested form may be a part): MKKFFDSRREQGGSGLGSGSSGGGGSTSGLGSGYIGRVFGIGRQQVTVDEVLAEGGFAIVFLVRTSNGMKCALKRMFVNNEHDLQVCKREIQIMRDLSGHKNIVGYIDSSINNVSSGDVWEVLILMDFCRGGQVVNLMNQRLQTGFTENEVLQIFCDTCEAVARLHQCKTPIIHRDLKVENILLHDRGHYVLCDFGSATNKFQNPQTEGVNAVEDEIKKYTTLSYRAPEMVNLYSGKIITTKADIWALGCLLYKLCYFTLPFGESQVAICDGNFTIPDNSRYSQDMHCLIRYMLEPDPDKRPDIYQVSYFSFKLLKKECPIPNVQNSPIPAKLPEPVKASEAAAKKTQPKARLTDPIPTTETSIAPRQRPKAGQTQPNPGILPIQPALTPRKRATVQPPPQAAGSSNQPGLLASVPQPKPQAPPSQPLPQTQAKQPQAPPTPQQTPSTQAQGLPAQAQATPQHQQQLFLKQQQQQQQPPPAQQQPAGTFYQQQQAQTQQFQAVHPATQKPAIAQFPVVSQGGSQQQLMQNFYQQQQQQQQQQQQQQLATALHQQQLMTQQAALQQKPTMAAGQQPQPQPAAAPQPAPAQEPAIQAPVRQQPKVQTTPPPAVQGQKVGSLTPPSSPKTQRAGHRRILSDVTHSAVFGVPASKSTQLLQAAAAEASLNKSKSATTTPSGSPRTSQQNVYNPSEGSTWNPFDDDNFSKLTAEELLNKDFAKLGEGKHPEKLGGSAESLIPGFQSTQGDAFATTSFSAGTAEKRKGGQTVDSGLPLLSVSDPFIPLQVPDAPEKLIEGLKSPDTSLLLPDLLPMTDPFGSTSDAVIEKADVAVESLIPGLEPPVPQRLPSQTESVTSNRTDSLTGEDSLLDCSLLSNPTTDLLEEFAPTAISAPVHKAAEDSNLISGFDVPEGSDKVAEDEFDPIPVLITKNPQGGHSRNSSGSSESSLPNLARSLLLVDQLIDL
Sequence of Tyrosine-protein kinase FRK (Homo sapiens) (P42685 whole entry, the tested form may be a part): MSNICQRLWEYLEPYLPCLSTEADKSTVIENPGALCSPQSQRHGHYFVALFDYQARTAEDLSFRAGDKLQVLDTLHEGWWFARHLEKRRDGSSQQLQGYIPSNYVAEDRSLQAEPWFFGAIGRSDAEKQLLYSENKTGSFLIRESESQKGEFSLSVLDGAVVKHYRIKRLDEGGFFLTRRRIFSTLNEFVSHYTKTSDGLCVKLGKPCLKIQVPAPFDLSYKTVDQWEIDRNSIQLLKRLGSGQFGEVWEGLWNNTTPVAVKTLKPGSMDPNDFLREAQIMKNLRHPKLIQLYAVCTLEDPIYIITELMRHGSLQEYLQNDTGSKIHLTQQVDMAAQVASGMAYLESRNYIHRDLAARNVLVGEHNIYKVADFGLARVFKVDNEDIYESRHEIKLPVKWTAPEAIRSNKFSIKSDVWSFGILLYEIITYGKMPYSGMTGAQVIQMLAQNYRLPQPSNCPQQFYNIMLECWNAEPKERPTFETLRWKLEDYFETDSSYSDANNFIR

`CC(C)Nc1sc(C(=O)c2ccc(Cl)s2)c(N)c1C#N` gave an Activity [1] of 68%, an Activity [2] of 89% and an Activity [3] of 93%. The Activity [4] was 60%, the Activity [5] was 99% and the Activity [6] was 99%. For the same compound, the Activity [7] was 95%, the Activity [8] was 59% and the Activity [9] was 16%. For the same compound, the Activity [10] was 100%, the Activity [11] was 100% and the Activity [12] was 90%. The Activity [13] was 100%, the Activity [14] was 87% and the Activity [15] was 100%. For the same compound, the Activity [16] was 92%, the Activity [17] was 76% and the Activity [18] was 79%. It also gave an Activity [19] of 100%, an Activity [20] of 81% and an Activity [21] of 100%. The Activity [22] was 80%, the Activity [23] was 100% and the Activity [24] was 54%.
